Patent US8877940B2, “Antibiotic tolerance inhibitors” (Institut National de la Recherche Scientifique, priority 2011, dated 2014)
“Also recorded” adds a separate entry of the source.

What was measured:
[1] = system: 4-hydroxy-2-alkylquinoline (HAQ) levels, P. aeruginosa PA14 (MvfR regulon); format: cell-based, Pseudomonas aeruginosa; settings: very low concentrations, nanomolar range
[2] = system: pyocyanin, an MvfR-regulated virulence factor, P. aeruginosa PA14; test: Quantification of pyocyanin (OD520nm of chloroform-extracted cultures); format: cell-based, Pseudomonas aeruginosa; settings: very low concentrations, nanomolar range
Method: Pyocyanin levels were determined by measuring OD520nm of chloroform-extracted cultures.
Compounds were tested at various concentrations for their impact on 4-hydroxy-2-alkylquinoline (HAQ) levels, including the MvfR ligands 4-hydroxy-2-heptylquinoline (HHQ) and 3,4-dihydroxy-2-heptylquinoline (PQS), as well as 2-n-heptyl-4-hydroxyquinoline-N-oxide (HQNO) and 2,4-dihydroxyquinoline (DHQ) (FIGS. 2A-2C). Levels of the phenazine, pyocyanin, an MvfR-regulated virulence factor, were also determined.

[3] = system: Raw264.7 macrophage cells infected with PA14; test: Viability of PA14-infected macrophage cells (MTT assay); format: cell-based
Method: Raw264.7 macrophage cells were cultured in Dulbecco's modified eagles medium (DMEM) containing 10% FCS, 2 mM glutamine and antibiotic-antimycotic solutions. Before infections cells were washed with PBS (without Mg2+ and Ca2+) and antibiotic-free medium was used for infections. The cells were infected with PA14 and PA14 isolates grown in the presence of compounds at an MOI of 100 for 3 h at 37° C. in a 5% CO2 atmosphere. During infections cells were incubated with 100 μM of compounds as well. After 3 hours of PA14 infection, the cells were washed and incubated with DMEM medium containing polymixin B and gentamicin in order to kill the extracellular bacteria. The viability of Raw264.7 was assessed using the MTT assay, which detects the early sign of eukaryotic cell death. The formazan crystals formed in viable, metabolically active cells were dissolved by the addition of 100 μl DMSO and optical density was measured at 570 nm in a microplate reader.
In order to determine whether or not the potent inhibitors are cytotoxic in eukaryotes, Raw 264.7 macrophage cells were exposed to selected compounds. No significant cytotoxicity was observed following compound exposure for 3 hours compared to the DMSO solvent control (FIG. 6A). The cytotoxicity of the macrophage cells was also determined when infected with PA14 bacterial cells alone or in the presence of the compounds.

[4] = system: P. aeruginosa PA14; test: Murine burn and infection model, M64 plus ciprofloxacin; format: in vivo, DC-1 mice; settings: IV at 6, 20, 28, 40, 60, 68 and 80 h; M64 100 μM (4 mg/Kg), ciprofloxacin 0.4 mg/Kg; 7 days; un-injected controls 30%
Description: A murine thermal injury model (Stevens et al., J Burn Care Rehabil. 1994; 15:232-235) was used as previously described to further assess bacterial pathogenicity in 6-wk-old DC-1 mice (Rahme et al., Science, 268(5219): p. 1899-902 (1995)) in the presence of combination of Ciprofloxacin (Bayer AG) and M64. Following mouse anesthetization, a full-thickness thermal burn injury involving 5%-8% of the body surface area was produced on the dermis of the shaved abdomen, and an inoculum of about 6-7×10^3 PA14 cells was injected intradermally into the burn eschar along with DMSO or 100 μM M64 compound. 100 μM (4 mg/Kg) of M64, 0.4 mg/Kg of ciprofloxacin (lower than the recommended dose of 10 mg/Kg), or a combination of M64+ciproflocaxin was also injected IV via tail vein at 6, 20, 28, 40, 60, 68 h and 80 h post-infection. Mice survival was subsequently assessed over the course of 7 days. Ten animals per treatment were used. In this set of experiments the concentration of ciprofloxacin used was lower than the therapeutic levels recommended to permit assessment of the possible synergistic effect between M64 and ciprofloxacin.

[5] = target: MvfR binding to pqsA promoter (Pseudomonas aeruginosa, UniProt Q9I4X0)
[6] = system: P. aeruginosa PA14; test: Murine burn and infection model; settings: ~100 μM compound/mouse at infection and IV at 6 and 24 h; solvent control 38%
Method: A thermal injury mouse model was used as described previously to assess bacterial pathogenicity in 6 week old BALBC mice (Charles River Laboratories). Following mouse anesthetization, a full-thickness thermal burn injury involving 5%-8% of the body surface area was produced on the dermis of the shaved abdomen. An inoculum of 4×10^4 PA14 cells, corresponding to a lethal dose of 50%, was injected intradermally into the burn eschar along with the compound or solvent, prepared as follows: 5 μl of a 50 mM stock in DMSO of compound was added to a solution of 5% CremophorEL/Ethanol (50/50% vol) in 50 μl saline. […] Each mouse also received IV injections of 50 μl of compound or solvent, as prepared above at 6 hours and 24 hours post-infection.
A murine thermal injury and infection model was used to assess the impact of the compounds on P. aeruginosa pathogenesis in animals. Due to the hydrophobic nature of the compounds, 5% CremophorEL/Ethanol (50/50% vol) was used as an emulsifier to dissolve the compound in saline prior to injecting into animals. […] The bacteria and either 100 μM compound/mouse or DMSO control were co-injected at the time of infection. Compounds were also injected 6 hours and 24 hours post-infection.

Sequence of MvfR binding to pqsA promoter (Q9I4X0 whole entry, looked up): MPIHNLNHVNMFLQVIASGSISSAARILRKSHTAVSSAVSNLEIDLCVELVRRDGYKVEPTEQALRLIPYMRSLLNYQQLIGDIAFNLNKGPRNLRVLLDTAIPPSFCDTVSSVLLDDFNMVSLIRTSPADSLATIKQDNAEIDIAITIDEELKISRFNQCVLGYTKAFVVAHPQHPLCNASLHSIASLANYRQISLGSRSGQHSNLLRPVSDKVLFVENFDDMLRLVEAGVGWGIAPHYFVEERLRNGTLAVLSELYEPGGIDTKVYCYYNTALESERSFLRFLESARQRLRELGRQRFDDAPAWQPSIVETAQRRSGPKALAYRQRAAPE

O=C(CSc1nc2ccc([N+](=O)[O-])cc2[nH]1)Nc1ccc(Oc2ccccc2)cc1 [Compound M64, 2-((6-nitro-1H-benzo[d]imidazol-2-yl)thio)-N-(4-phenoxyphenyl)acetamide]
reduction / inhibition of HAQs [1]: one of the most effective; also recorded: considerably inhibited | reduction / inhibition of pyocyanin [2]: one of the most effective; also recorded: considerably inhibited | viability at 100 µM ([3]; Mus musculus, RAW264.7, 3 h, read-out: viable macrophage cells surviving post-infection): 80% | reduction of PA14-induced cytotoxicity ([3]; PA14 MOI 100, 3 h, 100 μM compound): effectively reduced cytotoxicity | survival rate [4]: 75% | effect on MvfR binding to pqsA promoter (ChIP fold enrichment) [5]: affects MvfR binding to pqsA promoter by competing with the MvfR ligand PQS | overall surviving mice [6]: 84%
